Assay results reported in patent publication US6583127B1, “Use of etherlysophospholipids as antiinflammatory agents” (Inkeysa. SA, priority 1998, dated 2003).

Legend:
phospholipase A2 (PLA2) = test: [3H]arachidonic acid release as assay for PLA2 activity; format: cell-based; conditions: FIG. 10
Procedure: Measurement of arachidonic acid release. Arachidonic acid release was measured as an assay for phospholipase A2 (PLA2) activity, because this enzyme activity constitutes the major pathway controlling arachidonic acid release. Cells (5×10^5/ml) were labeled overnight with 0.1 μCi of [^3H]arachidonic acid/ml in RPMI-1640 culture medium containing 10% fetal calf serum. Then cells were washed four times with culture medium, and cells were resuspended in […] culture medium in the absence of serum in the absence (control) or in the presence of distinct agents for the times indicated in the respective figures. After this period, cells were pelleted by centrifugation and supernatants were transferred to scintillation vials and counted for radioactivity. Results are shown as cpm of labelled arachidonic acid released to the extracellular medium.

cytosolic PLA2 = test: Semiquantitative RT-PCR of cytosolic PLA2 expression in HL-60 cells; format: cell-based, human; conditions: HL-60 cells (FIG. 9)
Procedure: Cell culture. Human promyelocytic HL-60 cells and promonocytic U937 cells were grown in RPMI-1640 culture medium supplemented with 10% (v/v) heat-inactivated fetal calf serum, 2 mM L-glutamine, 100 units/ml penicillin and 24 μg/ml gentamicin. Mouse 3T3 fibroblasts were grown in Dulbecco's modified Eagle's medium (DMEM) supplemented with 10% (v/v) heat-inactivated fetal calf serum, 2 mM L-glutamine, 100 units/ml penicillin and 24 μg/ml gentamicin. Cells were incubated at 37° C. in a humidified atmosphere at 5% CO2 and 95% air.
Reverse transcriptase polymerase chain reaction (RT-PCR). Total RNA was extracted from human neutrophils and cell lines using TRIZOL reagent (GIBCO-BRL) following the manufacturer's instructions. RNA preparations were carefully checked by gel electrophoresis and found to be free of DNA contamination. For the RT reaction, total RNA (10 μg) was primed with oligo-dt and reverse-transcribed into cDNA with 30 units of M-MLV reverse transcriptase from Promega according to manufacturer's instructions in a final volume of 20 μL. The mixture was incubated at 37° C. for 90 min. The generated cDNA was used for the semi-quantitative RT-PCR and the β-actin gene was used as an internal control. […]

[1] = tested on: experimental colitis induced by TNB (2,4,6-trinitrobenzenesulphonic acid); test: Rat model of experimental colitis induced by TNB, macroscopic evaluation; format: in vivo; parameters: Wet Weight (colon): unit not given beside the values; conditions: Wistar rat; for Wet Weight (colon) / Sample 2 × 6 mm / Score (0-10) / Weight/mm: Mean ± SEM
Procedure: The therapeutic potential for the treatment of ulcerative colitis of IEC01 at 2.5 and 5 mg/kg and IES01 at 2.5 mg/kg, was evaluated after their administration by oral route during 14 days (7 days of preventive treatment and 7 days of therapeutic treatment) using the rat model of experimental colitis induced by TNB (2,4,6-trinitrobenzenesulphonic acid). As reference parameters, the body weight, wet colon weight and score macroscopic evaluation were evaluated after 24 hours and after 7 days of the intraluminal administration of TNB in the colon. […] The inflammatory response is recognised by the presence of ulcerative fissures, faecal shatters and inflammation of bowel wall. A chronic inflammatory response was observed 7 days after the administration. An erratic response with lineal or punctual ulcers, necrosis, faecal shatters, reduction of colonic lumen, granulomas and peritoneal adherence was observed.

CD44 = test: Cell surface expression of CD44 in human neutrophils (immunofluorescence flow cytometry); format: cell-based; conditions: Medium = 100
From the text: Isolation and treatment of neutrophils.
Monoclonal antibodies. […] The antibodies are commercially available.
Immunofluorescence flow cytometry. […] Results were expressed as relative MFI (rMFI), such that
rMFI=(MFIagent×100)/MFImedium
Background fluorescence was substracted from all values.

[2] = 2.5 mg/Kg p.o., after 24 hours of intraluminal administration
[3] = 2.5 mg/Kg p.o., after 7 days of intraluminal administration
[4] = 5.0 mg/Kg p.o., after 24 hours of intraluminal administration
[5] = 5.0 mg/Kg p.o., after 7 days of intraluminal administration

CCCCCCCCCCCCCCCCCCOCC(COP(=O)([O-])OCC[N+](C)(C)C)OC (stereo not drawn) [IEC01, Edelfosine]
PLA2 activity, as measured by [3H]arachidonic acid release (phospholipase A2 (PLA2)): able to stimulate
mRNA expression of cytosolic PLA2 (cytosolic PLA2): did not affect
% (inhibition, Sample 2 × 6 mm) [1, 2]: 14.7%
% (inhibition, Score) [1, 2]: 8.6%
% (inhibition, Weight/mm) [1, 2]: 35.2%
% (inhibition, Wet Weight) [1, 2]: 35.1%
Wet Weight (colon) ([1]; 2.5 mg/Kg p.o., after 24 hours of intraluminal administration in the colon): 1.689 ± 0.15
Sample 2 × 6 mm [1, 2]: 373.12 ± 48.12 mg
Score (0-10) [1, 2]: 5.2 ± 0.73
Weight/mm [1, 2]: 0.187 ± 0.02
% (inhibition, Sample 2 × 6 mm) [1, 3]: 17.9%
% (inhibition, Weight/mm) [1, 3]: 13.3%
% (inhibition, Wet Weight) [1, 3]: 13.4%
Wet Weight (colon) ([1]; 2.5 mg/Kg p.o., after 7 days of intraluminal administration in the colon): 1.354 ± 0.14
% (inhibition, Score) ([1]; 2.5 mg/Kg p.o., after 7 days of intraluminal administration, 2.5 mg/kg): 78,6%
Sample 2 × 6 mm [1, 3]: 299.62 ± 75.58 mg
Score (0-10) [1, 3]: 1.2 ± 0.58
Weight/mm [1, 3]: 0.150 ± 0.00
% (inhibition, Sample 2 × 6 mm) [1, 4]: 61.7%
% (inhibition, Score) [1, 4]: 42.9%
% (inhibition, Weight/mm) [1, 4]: 77.3%
% (inhibition, Wet Weight) [1, 4]: 77.4%
Wet Weight (colon) ([1]; 5.0 mg/Kg p.o., after 24 hours of intraluminal administration in the colon): 1.412 ± 0.06
Sample 2 × 6 mm [1, 4]: 301.10 ± 18.95 mg
Score (0-10) [1, 4]: 4.0 ± 0.32
Weight/mm [1, 4]: 0.157 ± 0.00
% (inhibition, Sample 2 × 6 mm) [1, 5]: 71.4%
% (inhibition, Weight/mm) [1, 5]: 63.0%
% (inhibition, Wet Weight) [1, 5]: 63.0%
Wet Weight (colon) ([1]; 5.0 mg/Kg p.o., after 7 days of intraluminal administration in the colon): 1.113 ± 0.14
% (inhibition, Score) ([1]; 5.0 mg/Kg p.o., after 7 days of intraluminal administration, 5 mg/kg): 71,4%
Sample 2 × 6 mm [1, 5]: 272.14 ± 53.65 mg
Score (0-10) [1, 5]: 1.4 ± 0.40
Weight/mm [1, 5]: 0.124 ± 0.01
CD44 cell surface expression (rMFI) (CD44; 10 ng/ml): 97 ± 2
CD44 cell surface expression (rMFI) (CD44; 100 ng/ml): 84 ± 4
CD44 cell surface expression (rMFI) (CD44; 500 ng/ml): 75 ± 7
CD44 cell surface expression (rMFI) (CD44; 1 μg/ml): 48 ± 9
CD44 cell surface expression (rMFI) (CD44; 5 μg/ml): 40 ± 8
